Here are results for 2 compounds from article PMC10343472, “Cyclopentenylcytosine (CPE-C): In Vitro and In Vivo Evaluation as an Antiviral against Adenoviral Ocular Infections” (Molecules, 2023).

Where two headings read alike, the source gives them in different places.

For one test, the system named is HAdV4. Briefly: plaque reduction assay in A549 cells, HAdV4. Type of test: cell-based. The following applies: Human adenovirus sp. The method, then: (§1) The in vitro antiviral testing was done using a standard plaque reduction assay with A549 human lung carcinoma cells as previously described. The EC50s were determined using a Fitted Line Plot Regression analysis with Minitab Version 21 software. The EC50 is the effective concentration that inhibits plaque formation by 50%. The HAdV types tested represent the most common adenovirus serotypes that cause ocular infections (HAdV8, HAdV19/64, HAdV37 (EKC); HAdV3, HAdV4, HAdV7a (follicular conjunctivitis)) and serotypes that cause conjunctivitis and can replicate in the rabbit ocular model (HAdV1, HAdV2, HAdV5).
(§2) For the in vitro antiviral testing, clinical adenovirus isolates of types HAdV1, HAdV2, HAdV3, HAdV4, HAdV5, HAdV7a, HAdV8, and HAdV19/64 were anonymously collected from patients presenting with typical adenoviral conjunctivitis at the Charles T. Campbell Ophthalmic Microbiology Laboratory at the UPMC Eye Center, University of Pittsburgh, Pittsburgh, PA, USA. The isolates were retrieved from a frozen −80 °C retrospective clinical collection that was de-identified and stored for diagnostic test validations. The types of isolates were determined using serum neutralization. Recently, HAdV19 has been reclassified as HAdV64 [41]; however, for the purpose of this study, it was designated as HAdV19/64. No clinical isolates of HAdV37 were identified, therefore the ATCC (American Type Culture Collection, Manassas, VA, USA) reference strain of HAdV37 was used. The clinical isolates along with the ATCC HAdV37 reference strain were grown in A549 cell (CCL-185, ATCC) monolayers and stocks were prepared, aliquoted, and frozen at –80 °C. The titers of the stock viruses were determined as described in Section 4.7. The same clinical isolate of HAdV5 used for the in vitro antiviral testing was also used for the in vivo antiviral evaluation in the Ad5/NZW rabbit ocular replication model.
(§3) A549 human lung carcinoma cells were grown and maintained in Eagle’s MEM supplemented with 10% fetal bovine serum (Sigma Cell Culture Reagents, St. Louis, MO, USA). The A549 cell line was used to prepare the adenovirus stocks and for the determination of viral titers in the Ad5/NZW rabbit ocular replication model and in the in vitro plaque reduction assays.
(§4) Plaque reduction assays were performed 2–4 times using 24-well multiplates containing A549 monolayers. One plate per virus isolate per drug was used. The 24-well multiplates were inoculated with approximately 100 plaque-forming units (PFU) of HAdV per well. After a three-hour adsorption period, the inocula were removed from all wells. […] The plates were dried, and the number of plaques per well was counted using a dissecting microscope. […] The mean and standard deviation EC50 concentrations of 2–4 trials were then determined for each HAdV isolate. […]
For orientation: Plaques are areas of infected cells; plaque reduction assays count them against a control.

For another test, the system named is HAdV3. As to the kind of experiment: plaque reduction assay in A549 cells, HAdV3. Type of test: cell-based. The conditions noted are these: Human adenovirus sp. The method, then:
as §1, §2, §3, §4

In a further test the test system is HAdV19/64. As to the kind of experiment: plaque reduction assay in A549 cells, HAdV19/64. Type of test: cell-based. The following applies: Human adenovirus sp. On the procedure:
as §1, §2, §3, §4

For test [1], the system named is nine adenovirus types that commonly infect the eye. As to the kind of experiment: plaque reduction assay, whole panel of ocular HAdV types. Type of test: cell-based, Human adenovirus. The conditions noted are these: for range of mean EC50 concentrations across the HAdV serotypes tested: highest vs lowest mean EC50; for EC50: unidentified adenovirus. On the procedure: as §1, §2, §3
(§5) Plaque reduction assays were performed 2–4 times using 24-well multiplates containing A549 monolayers. One plate per virus isolate per drug was used. The 24-well multiplates were inoculated with approximately 100 plaque-forming units (PFU) of HAdV per well. After a three-hour adsorption period, the inocula were removed from all wells. One ml of overlay media with 0.5% methylcellulose containing 100, 10, 1.0, 0.1, 0.01, or 0.001 μg/mL of CPE-C or cidofovir was added to 3 wells each. To the remaining 6 wells, 1 mL of overlay media with 0.5% methylcellulose and without CPE-C or cidofovir was added. The plates were incubated at 37 °C in 5% CO2 until plaque formation was visible. At that time, the cells were fixed and stained with 0.5% gentian violet containing formalin. The plates were dried, and the number of plaques per well was counted using a dissecting microscope. The CPE-C and cidofovir EC50 concentrations (concentrations that inhibits plaque formation by 50%) for each virus isolate were determined using a Fitted Line Plot Regression analysis (Minitab Version 21, State College, PA) of the average number of plaques versus drug concentration. The mean and standard deviation EC50 concentrations of 2–4 trials were then determined for each HAdV isolate. The EC50 concentrations in μg/mL were then converted to μM using the GraphPad online Molarity Calculator (https://www.graphpad.com/quickcalcs/Molarityform.cfm (accessed on 12 June 2023)).

The next test relates to HAdV2. As to the kind of experiment: plaque reduction assay in A549 cells, HAdV2. Type of test: cell-based. The conditions noted are these: Human adenovirus sp. On the procedure: as §1, §2, §3, §4
Another test concerns HAdV8. Briefly: plaque reduction assay in A549 cells, HAdV8. Format: cell-based. The conditions noted are these: Human adenovirus sp. The method, then:
as §1, §2, §3, §4

The next test has as its system HAdV7a. Briefly: plaque reduction assay in A549 cells, HAdV7a. Type of test: cell-based, Human adenovirus. On the procedure: as §1, §2, §3
as §5, with “The CPE-C and cidofovir EC50 concentrations (concentrations that inhibits plaque formation by 50%) for each virus isolate were determined using a Fitted Line Plot Regression analysis (Minitab Version 21, State College, PA) of the average number of plaques versus drug concentration.” left out, “The EC50 concentrations in μg/mL were then converted to μM using the GraphPad online Molarity Calculator (https://www.graphpad.com/quickcalcs/Molarityform.cfm (accessed on 12 June 2023)).” left out

Where [2] appears, read: A549, HAdV4, converted from μg/mL.
The mark [3] stands for this setting: HAdV4 clinical isolate, A549 cells, mean ± SD of 2–4 trials.
Where [4] appears, read: A549, HAdV3, converted from μg/mL.
The mark [5] stands for this setting: HAdV3 clinical isolate, A549 cells, mean ± SD of 2–4 trials.
Setting [6] is: A549, HAdV19/64, converted from μg/mL.
Where [7] appears, read: HAdV19/64 clinical isolate, A549 cells, mean ± SD of 2–4 trials.
Setting [8] is: A549, HAdV2, converted from μg/mL.
[9] abbreviates: HAdV2 clinical isolate, A549 cells, mean ± SD of 2–4 trials.
Setting [10] is: A549, HAdV8, converted from μg/mL.
Setting [11] is: HAdV8 clinical isolate, A549 cells, mean ± SD of 2–4 trials.
Where [12] appears, read: Human adenovirus sp., A549, HAdV7a clinical isolate, A549 cells, mean ± SD of 2–4 trials.
Where [13] appears, read: Human adenovirus sp., A549, HAdV7a, converted from μg/mL.

Turning to `Nc1ccn([C@@H]2C=C(CO)[C@@H](O)[C@H]2O)c(=O)n1` [CPE-C, Cyclopentenylcytosine], the EC50 is 0.134 ± 0.11 µM in the test on HAdV4 (setting [2]); 0.032 ± 0.026 µg/mL in the test on HAdV4 (setting [3]); 0.165 ± 0.016 µM in the test with HAdV3 (setting [4]); 0.04 ± 0.004 µg/mL in the test on HAdV3 (setting [5]); 0.196 ± 0.118 µM with HAdV19/64 (setting [6]); 0.047 ± 0.028 µg/mL in the test with HAdV19/64 (setting [7]). Moreover, the EC50 in test [1] (read-out: EC50 concentrations across the panel of HAdV types, panel of HAdV types that commonly infect the eye) is < 250 nM; in test [1] (read-out: EC50s across the panel of HAdV types, nine adenovirus types that commonly infect the eye), 0.03 to 0.059 µg/mL; with HAdV2 (setting [8]), 0.198 ± 0.101 µM; with HAdV2 (setting [9]), 0.047 ± 0.024 µg/mL; in the test with HAdV8 (setting [10]), 246 ± 76 nM; in the test on HAdV8 (setting [11]), 0.059 ± 0.018 µg/mL. Moreover, the figures for the EC50 in the test on HAdV7a (setting [12]) and in the test on HAdV7a (setting [13]) were 0.055 ± 0.026 µg/mL and 0.194 ± 0.057 µM, respectively. In addition, the “range of mean EC50 concentrations across the HAdV serotypes tested” value in test [1] is listed as 2 fold. Moreover, the “EC50 concentrations lower for CPE-C compared to cidofovir” value in test [1] (majority of the HAdV types) was “approximately 100 fold”. In addition, the “EC50s across the panel of HAdV types” value in test [1] (nine adenovirus types that commonly infect the eye) was < 0.06 µg/mL.

With `Nc1ccn(C[C@@H](CO)OCP(=O)(O)O)c(=O)n1` [Cidofovir, cidofovir, reference compound], the EC50 was determined as 16.5 ± 3.31 µM with HAdV4 (setting [2]); 4.61 ± 0.925 µg/mL in the test on HAdV4 (setting [3]); 14.8 ± 3.26 µM with HAdV3 (setting [4]); 4.12 ± 0.91 µg/mL with HAdV3 (setting [5]); 17.5 ± 1.85 µM in the test with HAdV19/64 (setting [6]); 4.9 ± 0.517 µg/mL in the test with HAdV19/64 (setting [7]). For the same compound, the EC50 in test [1] (read-out: EC50 concentrations for a majority of the HAdV serotypes, majority of the HAdV serotypes) is ~5 µg/mL; with HAdV2 (setting [8]), 18.3 ± 1.47 µM; in the test with HAdV2 (setting [9]) it was 5.11 ± 0.41 µg/mL; with HAdV8 (setting [10]) it was 1560 ± 592 nM; with HAdV8 (setting [11]), 0.427 ± 0.173 µg/mL; in the test on HAdV7a (HAdV7a, converted from μg/mL), 19.2 ± 0.491 µM. For the same compound, the EC50 came out at 5.37 ± 0.137 µg/mL in the test on HAdV7a (setting [12]) and 19.2 ± 0.491 µM in the test with HAdV7a (setting [13]). The “range of mean EC50 concentrations across the HAdV serotypes tested” value in test [1] is recorded as 12.6 fold.
